Source: patent US9518094B2 (priority 2010, dated 2016)
In brackets after ≈: the same amount, converted by molar mass. Entries after “also recorded” stand apart in the source; their conditions may differ. Where two headings read alike, the source gives them in different places.

Assays:
[1] = Slurry interconversion of solid forms with Form A; type: physicochemical; details: slurry of the form together with Form A; resulting form (time)
[2] = Solubility assessment of Compound I Form A in solvents and solvent mixtures (visual observation); type: physicochemical
[3] = Solid form stability under ambient conditions; type: physicochemical
Description: Samples were prepared from Compound I Form A solids or from samples generated from these solids. Form designation for the materials was based on X-ray powder diffraction (XRPD). Care was taken to protect samples from light, unless stated otherwise. Prior to characterization, solids were stored as follows: Form A and Form B (may have contained Form A solids as well) under ambient conditions, Form E and Form H over desiccant in a freezer, Form C in contact with mother liquor in a refrigerator, Form D in contact with mother liquor in a freezer, and Form I in contact with mother liquor under ambient conditions or in a freezer. Due to apparent instability of Form D, all characterization data except solution proton nuclear magnetic resonance spectroscopy (H-NMR) were collected for Form D on the same day. Although the ^1H-NMR analysis was not run until a few days later, the solution for the analysis was prepared on the same day as the rest of the characterization.
A crystal prepared from cold acetone solution was indexed. The indexing solution was determined to be an orthorhombic unit cell with the following cell parameters and calculated volume: a=9.093, b=15.581, c=23.141 Å, V=3278.57(9) Å^3. The formula weight was determined to be 598.81 g/mol. The cell parameters are similar to the cell obtained from the Compound I Form J crystal structure. […]

patients [4] = experiment: Toxicity and adverse events in clinical studies of Compound I; details: early development; out of more than 450 patients
patients [5] = details: human, in vivo
[6] = Form N solvent removal attempts (heating, vacuum drying, slurry), resulting form by XRPD; type: physicochemical; details: for XRPD result after vacuum drying: 43 mg, 42° C. vac dry 22 hours at 20 mTorr
Description: The resulting solids were characterized by proton NMR spectroscopy. […] Subsequently, the dried sample was characterized by DSC. The observed results are subject to the conditions used at the time of analysis. […] The remaining solids (43 mg) were dried for approximately 22 hours in a vacuum oven at approximately 42° C., at approximately 20 mTorr. The weight loss was not determined but the dried solids were characterized by XRPD.
Solids were recovered via vacuum filtration, washing with acetonitrile (4×1 mL). The solids were left on the filter under vacuum for several minutes to dry the solids. […] In another embodiment, 309.5 mg of solid were slurried in water (4 mL) for approximately 24.5 hours. Solids were recovered via vacuum filtration, washing with water (2×1 mL). The solids were left on the filter under vacuum for approximately 1.5 hours to dry the solids.

C/C=C1\NC(=O)[C@H]2CSSCC/C=C/[C@H](CC(=O)N[C@H](C(C)C)C(=O)N2)OC(=O)[C@H](C(C)C)NC1=O [Form A, romidepsin]
Slurry interconversion [1]: Remains A | solubility ([2]; 2,2,2-trifluoroethanol (TFE), organic solvent or mixture, thermodynamic from solid, 2,2,2-trifluoroethanol (TFE), ambient temperature, reported values <= actual solubility, approximate, read-out: Solubility): > 100 mg/mL | solubility ([2]; 2,2,2-trifluoroethanol (TFE), ambient temperature, reported values <= actual solubility, approximate, listed as Compound I, Form A): 158.9 mg/mL (≈ 294 mM) | solubility ([2]; 2-butanone (MEK), organic solvent or mixture, thermodynamic from solid, 2-Butanone (MEK), ambient temperature, reported values <= actual solubility, approximate, read-out: Solubility): 12.5 mg/mL (≈ 23.1 mM) | solubility ([2]; (0.1:0.1) TFE:DCM, organic solvent or mixture, thermodynamic from solid, (0.1:0.1) TFE:DCM, ambient temperature, reported values <= actual solubility, approximate, read-out: Solubility): 97 mg/mL (≈ 179 mM) | solubility ([2]; (0.5:0.1) acetone:DCM, organic solvent or mixture, thermodynamic from solid, (0.5:0.1) Acetone:DCM, ambient temperature, reported values <= actual solubility, approximate, read-out: Solubility): 38 mg/mL (≈ 70.3 mM) | solubility ([2]; (1:0.1) 2-butanone:TFE, organic solvent or mixture, thermodynamic from solid, (1:0.1) 2-Butanone:TFE, ambient temperature, reported values <= actual solubility, approximate, read-out: Solubility): 20.6 mg/mL (≈ 38.1 mM) | solubility ([2]; (1:0.1) toluene:TFE, organic solvent or mixture, thermodynamic from solid, (1:0.1) Toluene:TFE, ambient temperature, reported values <= actual solubility, approximate, read-out: Solubility): 21.4 mg/mL (≈ 39.6 mM) | solubility ([2]; (1:0.2) acetonitrile (ACN):TFE, organic solvent or mixture, thermodynamic from solid, (1:0.2) Acetonitrile (ACN):TFE, ambient temperature, reported values <= actual solubility, approximate, read-out: Solubility): 17.9 mg/mL (≈ 33.1 mM) | solubility ([2]; (1:0.2) ethanol:TFE, organic solvent or mixture, thermodynamic from solid, (1:0.2) Ethanol:TFE, ambient temperature, reported values <= actual solubility, approximate, read-out: Solubility): 16.3 mg/mL (≈ 30.1 mM) | solubility ([2]; (1:0.5) dioxane:acetone, organic solvent or mixture, thermodynamic from solid, (1:0.5) Dioxane:Acetone, ambient temperature, reported values <= actual solubility, approximate, read-out: Solubility): 13.3 mg/mL (≈ 24.6 mM) | solubility ([2]; (1:1) 2-propanol:acetone, 60 °C, organic solvent or mixture, thermodynamic from solid, (1:1) 2-Propanol:Acetone, hot plate set to 60° C., reported values <= actual solubility, approximate, read-out: Solubility): 11.5 mg/mL (≈ 21.3 mM) | solubility ([2]; (1:1) ethanol/IPA, 70 °C, organic solvent or mixture, thermodynamic from solid, (1:1) Ethanol/IPA, hot plate set to 70° C., reported values <= actual solubility, approximate, read-out: Solubility): 28 mg/mL (≈ 51.8 mM) | solubility ([2]; (1:3) ethanol/IPA, 70 °C, organic solvent or mixture, thermodynamic from solid, (l:3) Ethanol/IPA, hot plate set to 70° C., reported values <= actual solubility, approximate, read-out: Solubility): 10 mg/mL (≈ 18.5 mM) | solubility ([2]; (1.5:0.5) water:DCM, aqueous with cosolvent or surfactant or cyclodextrin, thermodynamic from solid, (1.5:0.5) Water:DCM, ambient temperature, reported values <= actual solubility, approximate, read-out: Solubility): 12.4 mg/mL (≈ 22.9 mM) | solubility ([2]; (1.5:0.8) ethyl acetate:acetone, organic solvent or mixture, thermodynamic from solid, (1.5:0.8) Ethyl Acetate:Acetone, ambient temperature, reported values <= actual solubility, approximate, read-out: Solubility): 8.9 mg/mL (≈ 16.5 mM) | solubility ([2]; (1.5:1) heptane:DCM, 60 °C, organic solvent or mixture, thermodynamic from solid, (1.5:1) Heptane:DCM, hot plate set to 60° C., reported values <= actual solubility, approximate, read-out: Solubility): 8 mg/mL (≈ 14.8 mM) | solubility ([2]; (1.5:1) methanol:TFE, 60 °C, organic solvent or mixture, thermodynamic from solid, (1.5:1) Methanol:TFE, hot plate set to 60° C., reported values <= actual solubility, approximate, read-out: Solubility): 8.7 mg/mL (≈ 16.1 mM) | solubility ([2]; (4.5:3) isopropyl ether:ethanol, organic solvent or mixture, thermodynamic from solid, (4.5:3) Isopropyl Ether:Ethanol, ambient temperature, reported values <= actual solubility, approximate, read-out: Solubility): 6.8 mg/mL (≈ 12.6 mM) | solubility ([2]; Acetone, ambient temperature, reported values <= actual solubility, approximate, listed as Compound I, Form A): 28.2 mg/mL (≈ 52.2 mM) | solubility ([2]; Dichloromethane (DCM), ambient temperature, reported values <= actual solubility, approximate, listed as Compound I Form A): over 100 mg/ml | solubility ([2]; Dimethylformamide (DMF), ambient temperature, reported values <= actual solubility, approximate, listed as Compound I Form A): over 100 mg/ml | solubility ([2]; Dimethylformamide (DMF), ambient temperature, reported values <= actual solubility, approximate, listed as Compound I, Form A): 248.5 mg/mL (≈ 460 mM) | solubility ([2]; acetone, organic solvent or mixture, thermodynamic from solid, Acetone, ambient temperature, reported values <= actual solubility, approximate, read-out: Solubility): 22.4 mg/mL (≈ 41.4 mM) | solubility ([2]; chloroform, organic solvent or mixture, thermodynamic from solid, Chloroform, ambient temperature, reported values <= actual solubility, approximate, read-out: Solubility): 26.5 mg/mL (≈ 49 mM) | solubility ([2]; ethanol (EtOH), organic solvent or mixture, thermodynamic from solid, Ethanol (EtOH), ambient temperature, reported values <= actual solubility, approximate, read-out: Solubility): 23.5 mg/mL (≈ 43.5 mM) | solubility ([2]; isopropanol (IPA), organic solvent or mixture, thermodynamic from solid, Isopropanol (IPA), ambient temperature, reported values <= actual solubility, approximate, read-out: Solubility): 4.6 mg/mL (≈ 8.51 mM) | solubility ([2]; majority of the solvents and solvent combinations tested, organic solvent or mixture, thermodynamic from solid, majority of solvent and solvent combinations tested, read-out: moderate solubility): > 10 mg/mL | solubility ([2]; nitromethane, organic solvent or mixture, thermodynamic from solid, Nitromethane, ambient temperature, reported values <= actual solubility, approximate, read-out: Solubility): 23.6 mg/mL (≈ 43.6 mM)

C/C=C1\NC(=O)[C@H]2CSSCC/C=C/[C@H](CC(=O)N[C@H](C(C)C)C(=O)N2)OC(=O)[C@H](C(C)C)NC1=O [Form E, romidepsin]
Slurry interconversion [1]: A + E → A, trace E

C/C=C1\NC(=O)[C@H]2CSSCC/C=C/[C@H](CC(=O)N[C@H](C(C)C)C(=O)N2)OC(=O)[C@H](C(C)C)NC1=O [Form C, romidepsin]
Slurry interconversion [1]: A + C → A (2 hrs)

C/C=C1\NC(=O)[C@H]2CSSCC/C=C/[C@H](CC(=O)N[C@@H](C(C)C)C(=O)N2)OC(=O)[C@H](C(C)C)NC1=O [Form D, romidepsin]
Form conversion under ambient conditions [3]: converts to Form A | Slurry interconversion [1]: A + D → A, trace C

C/C=C1\NC(=O)[C@H]2CSSCC/C=C/[C@H](CC(=O)N[C@H](C(C)C)C(=O)N2)OC(=O)[C@H](C(C)C)NC1=O [Form I, romidepsin]
Form conversion under ambient conditions ([3]; listed as Compound I Form I): converts to Form H

C/C=C1\NC(=O)[C@H]2CSSCC/C=C/[C@H](CC(=O)N[C@H](C(C)C)C(=O)N2)OC(=O)[C@H](C(C)C)NC1=O [Form B, romidepsin]
Slurry interconversion [1]: A + B → A (2 hrs)

C/C=C1\NC(=O)[C@H]2CSSCC/C=C/[C@H](CC(=O)N[C@H](C(C)C)C(=O)N2)OC(=O)[C@H](C(C)C)NC1=O [Compound I, romidepsin]
deaths during clinical investigations (patients [4]): 6 | Severity of observed toxicities (patients [5]): mild to moderate | serial serum troponin levels and multiple gated acquisition (MUGA) scans (patients [5]): consistently normal

C/C=C1\NC(=O)[C@H]2CSSCC/C=C/[C@H](CC(=O)N[C@H](C(C)C)C(=O)N2)OC(=O)[C@H](C(C)C)NC1=O [Form N, romidepsin]
XRPD result after heating ([6]; 10.3 mg, heated to 180° C. by DSC (crimped)): Form A + 2 weak peaks | XRPD result after vacuum drying [6]: unknown + Form N | XRPD result after vacuum drying ([6]; listed as Compound I, Form N): contains XRPD peaks of Form N but exhibits additional unknown peaks | XRPD result after slurry ([6]; 152.4 mg, 1 mL acetonitrile, slurry 1 hour): pattern T | HR XRPD result after vacuum drying ([6]; 308.3 mg, RT vac dry 5 days at 5 mTorr): exhibited Form N; also recorded: Form N + weak peak | HR XRPD result after slurry ([6]; 309.5 mg, 4 mL water, slurry 24.5 hours): a mixture of Forms C and A; also recorded: Forms C + A + peaks ^g
